This is an account of results in article PMC6645542 (PLoS ONE, 2019).

Structures are written as SMILES.

The target in data set [1] is Thioredoxin glutathione reductase from T. crassiceps (TcTGR) (Taenia crassiceps, UniProt A0ABR4QG96). As to the kind of experiment: GSSG-reductase activity of TGR (NADPH oxidation at 340 nm). It counts as biochemical. The note with it: for Recovered activity (%): B: TGR incubated with COP for 5 min, then thiol 50 μM added, control = 100%; for inhibition at 200 µM: 200 μM of the compound, 3 min incubation (Fig 1a), read-out: maximal inhibition of GSSG reductase activity of TcTGR; for IC50: curcumin degradation products, 3 min incubation in TE buffer, 100 μM NADPH, 67 μM GSSG, read-out: IC50, inhibition of GSSG reductase activity of TcTGR.
Description: TGR activity was monitored spectrophotometrically by following the decrease in absorbance at 340 nm (ɛ = 6.22 mM^-1cm^-1) due to its NADPH-dependent ability to reduce GSSG [35, 36]. To determine the inhibitory ability of either curcuminoids, curcumin degradation products or curcumin oxidation products we used the following protocols: a) Curcuminoids. An enzyme aliquot (30 μL) was incubated in the presence of 1 μM NADPH; then, a 1.5 μL aliquot of the above mixture was added to 50 μM of the corresponding curcuminoid solution in TE buffer. At different incubation times, a small aliquot containing both NADPH and GSSG was added to start the reaction in a total volume of 600 μL. The enzyme activity of a reaction mixture prepared in the absence of any curcuminoid was taken as 100% relative activity b) Curcumin degradation products (CDP). The enzyme was treated as above and 1.5 μL aliquot of the mixture was added to the corresponding CDP solution at a selected concentration followed by a 2 min incubation period. Then, both NADPH and GSSG were added to start the reaction. The enzyme activity of a reaction mixture prepared in the absence of any CDP was taken as 100% relative activity. c) Curcumin oxidation products (COP). Curcumin final concentration 50 μM was incubated 15 min in TE buffer. Then, both TGR and the substrates NADPH and GSSG were added to start the reaction. Final concentrations of enzyme, NADPH and GSSG were 13 nM, 100 μM and 70 μM respectively. A unit of enzyme activity is defined as the amount of protein needed to oxidize one μmol NADPH per minute at 25°C.

Data set [2] is described as follows: Spectrophotometrical analysis of stability (absorbance at 426 nm / absorption spectrum). It counts as physicochemical. The method, then:
Raúl Enriquez (Instituto de Química, UNAM, México). Curcumin 5 mM was dissolved in DMSO and stored at room temperature. […] The protein concentration of the purified enzyme was determined spectrophotometrically by reading the absorbance at 460 nm (ɛ = 11.3 mM^-1cm^-1) due to its FAD content. The absorption spectrum of curcuminoids (curcumin, DMC and BDMC) and the different curcumin degradation products (CDP) FM, V, VA, F-Ad, 4VG, and FA were recorded in a UV/Vis Beckman DU 730 Spectrophotometer. […] The detection of the curcumin oxidation products (COP) was performed by following the changes in the absorption spectrum immediately after a 100-fold dilution of the curcumin stock solution in TE buffer.

On the set-up of data set [3]: method as in PMID 25806475. To be noted: cited from earlier work.

Consider `O[C@@H](CS)[C@@H](O)CS` (racemic) [DTT, 1,4-Dithio-DL-threitol, reference compound], for which, in data set [1], the “Recovered activity (%)” value is recorded as 20.3 ± 1.1%.
As usually defined, the inhibition is the change of the read-out against control, counted positive when it falls. In the case of `O=C(/C=C/c1ccc(O)cc1)CC(=O)/C=C/c1ccc(O)cc1` [BDMC, bis-demethoxycurcumin], in data set [1] (50 μM, diluted 30 min in TE buffer before enzyme, 30 min incubation with TGR (Fig 3)), the “inhibition of the enzyme activity” value is “no inhibition was observed”. Moreover, the inhibition at 200 µM in data set [1] is 100%.
Take `COc1cc(/C=C/C(O)=C/C(=O)/C=C/c2ccc(O)cc2)ccc1O` [DMC, demethoxycurcumin]: in data set [1], the inhibition at 200 µM stood at 65%. Further, the “effect of NADPH on the stability” value in data set [2] (50 μM in TE buffer, 100 μM NADPH, absorbance at 426 nm) is on record as “no effect”. Moreover, in data set [3], the “time after dilution at which the final product of oxidative transformation was achieved” value was 48 h.
Regarding `N[C@@H](CCC(=O)N[C@@H](CS)C(=O)NCC(=O)O)C(=O)O` [GSH, reduced glutathione, reference compound], the “Recovered activity (%)” value in data set [1] was 14.7 ± 1.0%.
Turning to `COc1cc(/C=C/C(=O)CC(=O)/C=C/c2ccc(O)c(OC)c2)ccc1O` [curcumin, (1E, 6E)-1,7-bis (4-hydroxy-3-methoxyphenyl)-1,6-heptadiene-3,5-dione], the “dilution time at which the maximal inhibitory ability was reached” value in data set [1] (50 μM diluted in TE buffer in the absence of NADPH (Fig 4a)) worked out at 15 min. In addition, in data set [1] (50 μM diluted in TE buffer in the presence of 100 μM NADPH (Fig 4b)), the “inhibition of the enzyme activity” value was “no inhibition”. Further, the remaining activity at 50 µM in data set [1] (50 μM diluted in TE buffer without NADPH, after 4 h incubation (Fig 4a grey line), read-out: activity relative to control) is 80%. Besides, the GSSG reductase activity entry in data set [1] (50 μM, diluted 30 min in TE buffer before enzyme, 1 min incubation with the enzyme (Fig 3a)) is “no GSSG reductase activity was detected”. For the same molecule, in data set [1], the inhibition at 200 µM was determined as 10%. Also, the “drop in the absorbance at 426 nm” value in data set [2] (50 μM in TE buffer pH 7.8, 30 min incubation, in the absence of NADPH) is listed as 82%. For the same molecule, the “diminution in the absorbance at 426 nm” value in data set [2] (50 μM in TE buffer pH 7.8, 30 min incubation, in the presence of 100 μM NADPH) is 25%.
The IC50 is the point on the concentration scale where inhibition reaches its midpoint. On to `COc1cc(/C=C/C(=O)O)ccc1O` [ferulic acid], for which the IC50 in data set [1] came to 465 µM.
The same measure, in the same setting: the value for `COc1cc(/C=C/C=O)ccc1O` [ferulic aldehyde] was 180 µM.
